According to ChEMBL document CHEMBL1201862, “PubChem BioAssay data set” (2004):
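Where inhibition never reached the appropriate level, the endpoint shown equals the highest concentration tested. Otherwise, values were interpolated linearly from a five-concentration, 48-hour dose response in 96-well plates. Here, GI50 denotes the concentration required for 50% inhibition of growth.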 Active and inactive are the calls of the source. Rule as the data show it: active = GI50 up to about 1.1 µM and inactive = higher.

Assays:
Assay in all cases: DTP human tumour cell line panel, 48 h
[1] = test system: HOP-92
[2] = test system: SN12C
[3] = test system: HL-60
[4] = test system: DU-145
[5] = test system: KM12
[6] = test system: UACC-62
[7] = test system: SNB-19
[8] = test system: UACC-257
[9] = test system: SF-539
[10] = test system: ACHN
[11] = test system: SK-MEL-5
[12] = test system: RXF 393
[13] = test system: 786-0
[14] = test system: K562
[15] = test system: U-251
[16] = test system: A498
[17] = test system: MOLT-4
[18] = test system: NCI/ADR-RES
[19] = test system: SNB-75
[20] = test system: NCI-H460

Structure (SMILES)	GI50 [1]	GI50 [2]	GI50 [3]	GI50 [4]	GI50 [5]	GI50 [6]	GI50 [7]	GI50 [8]	GI50 [9]	GI50 [10]	GI50 [11]	GI50 [12]	GI50 [13]	GI50 [14]	GI50 [15]	GI50 [16]	GI50 [17]	GI50 [18]	GI50 [19]	GI50 [20]
N#Cc1c2c(c(Nc3ccc(F)cc3)n3c1nc1ccccc13)CCCC2	26.9 µM (inactive)	> 100 µM (inactive)	9.93 µM (inactive)	> 48.5 µM (inactive)	5.6 µM (inactive)	> 100 µM (inactive)	26.7 µM (inactive)	27.2 µM (inactive)	> 55.5 µM (inactive)	1.8 µM (inactive)	23.8 µM (inactive)	24 µM (inactive)	56.2 µM (inactive)	0.562 µM (active)	43.8 µM (inactive)	> 100 µM (inactive)	6.32 µM (inactive)	> 100 µM (inactive)	45.7 µM (inactive)	23.1 µM (inactive)
NS(=O)(=O)c1ccc(NNc2c3ccccc3nc3c(C(=O)Nc4ccc(S(N)(=O)=O)cc4)cccc23)cc1	5.07 µM (inactive)	31.5 µM (inactive)	22.3 µM (inactive)	43.8 µM (inactive)	27.9 µM (inactive)	22.2 µM (inactive)	33.5 µM (inactive)	98.4 µM (inactive)	25.7 µM (inactive)	27.7 µM (inactive)	34.9 µM (inactive)	6.73 µM (inactive)	15.6 µM (inactive)	21.2 µM (inactive)	14.5 µM (inactive)	> 100 µM (inactive)	7.85 µM (inactive)	> 100 µM (inactive)	14.5 µM (inactive)	24.2 µM (inactive)
COc1ccc(NC(C)=O)cc1N1C(=O)/C(=C\c2cc(OC)c(OC)c(OC)c2)S(=O)(=O)C1c1ccccc1 (stereo not given)	51.3 µM (inactive)	50.8 µM (inactive)	19.3 µM (inactive)	75 µM (inactive)	46.7 µM (inactive)	65.6 µM (inactive)	> 100 µM (inactive)	89.5 µM (inactive)	> 100 µM (inactive)	70.5 µM (inactive)	44.8 µM (inactive)	74.6 µM (inactive)	72.9 µM (inactive)	28.5 µM (inactive)	46.8 µM (inactive)	> 100 µM (inactive)	22 µM (inactive)	73.6 µM (inactive)	39 µM (inactive)	58.9 µM (inactive)
COc1cc2cc(C(=O)N3C[C@@H](CCl)c4c3cc(N)c3ccccc43)[nH]c2c(OC)c1OC	0.0048 µM (active)	0.00914 µM (active)	0.00318 µM (active)	< 0.01 µM (active)	0.00216 µM (active)	0.000895 µM (active)	0.00665 µM (active)	0.237 µM (active)	0.00213 µM (active)	0.00942 µM (active)	< 0.01 µM (active)	0.00157 µM (active)	0.103 µM (active)	0.00327 µM (active)	0.00163 µM (active)	0.00863 µM (active)	0.00557 µM (active)	0.00332 µM (active)	< 0.01 µM (active)	0.00183 µM (active)
CN1CCC2(CC1)SC[C@H]1C(=O)N(c3ccc(Cl)cc3)C(=O)N12	> 100 µM (inactive)	> 100 µM (inactive)	> 100 µM (inactive)	> 100 µM (inactive)	> 100 µM (inactive)	> 100 µM (inactive)	> 100 µM (inactive)	> 100 µM (inactive)	> 100 µM (inactive)	25.9 µM (inactive)	> 100 µM (inactive)	> 100 µM (inactive)	> 100 µM (inactive)	45.2 µM (inactive)	> 100 µM (inactive)	24.2 µM (inactive)	> 100 µM (inactive)	> 100 µM (inactive)	> 100 µM (inactive)	> 100 µM (inactive)
Clc1ccc(Cc2nc3cc(Cl)c(Cl)cc3n2CC2CCCN3CCCCC23)cc1Cl (stereo not given)	5.38 µM (inactive)	4.13 µM (inactive)	2.5 µM (inactive)	4.79 µM (inactive)	2.19 µM (inactive)	2.28 µM (inactive)	2.9 µM (inactive)	2.88 µM (inactive)	1.98 µM (inactive)	4.47 µM (inactive)	1.85 µM (inactive)	7.53 µM (inactive)	2.99 µM (inactive)	3.26 µM (inactive)	3.86 µM (inactive)	8.17 µM (inactive)	4.34 µM (inactive)	4.46 µM (inactive)	4.53 µM (inactive)	3.1 µM (inactive)
C#CC1(O)C(COP(=O)(O)OC(COCCCCCCCCCCCCCCCCCC)COP(=O)(O)OCC2OC(n3cc(C)c(=O)[nH]c3=O)CC2N=[N+]=[N-])OC(n2ccc(N)nc2=O)C1O (stereo not given)	0.91 µM (active)	0.807 µM (active)	0.617 µM (active)	0.946 µM (active)	0.891 µM (active)	1.88 µM (inactive)	1.8 µM (inactive)	3.77 µM (inactive)	0.282 µM (active)	0.432 µM (active)	2.75 µM (inactive)	1.37 µM (inactive)	0.706 µM (active)	0.216 µM (active)	0.264 µM (active)	1.69 µM (inactive)	0.347 µM (active)	1.22 µM (inactive)	2.52 µM (inactive)	0.0843 µM (active)
